Data on one molecule can be found in patent US8236512B1, “Methods of developing terpene synthase variants” (Amyris, Inc., priority 2011, dated 2012).

The target of this assay is Artemisia annua β-farnesene synthase (SEQ ID NO: 111) variant FS_C_8 F11S/V24D/L18I/M35T/T196S/Y288F/T319S/R348K/T385A/I434T/T446N/I460V/V467I (parent coding se (Artemisia annua, UniProt Q9FXY7)). Nature of the assay: Steady-state kinetics of purified farnesene synthase variant FS_C_8. The class given is biochemical. The following applies: purified enzyme.
Chain of Artemisia annua β-farnesene synthase (SEQ ID NO: 111) variant FS_C_8 F11S/V24D/L18I/M35T/T196S/Y288F/T319S/R348K/T385A/I434T/T446N/I460V/V467I (parent coding se (Q9FXY7 whole entry F11S/L18I/V24D/M35T/T196S/Y288F/T319S/R348K): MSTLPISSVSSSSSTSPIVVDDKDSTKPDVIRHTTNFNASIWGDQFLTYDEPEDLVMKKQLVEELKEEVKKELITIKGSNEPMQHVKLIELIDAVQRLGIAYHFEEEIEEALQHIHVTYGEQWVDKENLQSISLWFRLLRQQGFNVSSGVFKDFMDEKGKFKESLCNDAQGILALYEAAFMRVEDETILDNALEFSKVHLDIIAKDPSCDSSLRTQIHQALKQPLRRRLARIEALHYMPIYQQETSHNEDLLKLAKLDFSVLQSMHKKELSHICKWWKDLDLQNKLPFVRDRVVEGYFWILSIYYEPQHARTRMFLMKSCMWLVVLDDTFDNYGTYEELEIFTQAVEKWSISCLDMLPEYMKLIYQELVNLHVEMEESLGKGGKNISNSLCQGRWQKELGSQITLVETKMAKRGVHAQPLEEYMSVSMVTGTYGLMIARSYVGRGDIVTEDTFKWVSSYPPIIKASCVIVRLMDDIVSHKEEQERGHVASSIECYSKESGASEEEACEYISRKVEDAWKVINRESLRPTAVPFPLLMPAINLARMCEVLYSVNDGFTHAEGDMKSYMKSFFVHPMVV

As usually defined, the Km is the substrate concentration at which the rate is half of its maximum. Turning to `CC(C)=CCC/C(C)=C/CC/C(C)=C/CO[P@@](=O)(O)OP(=O)(O)O` (stereo in doubt) [FPP, farnesyl diphosphate], the Km amounted to 1.55 ± 0.76 µM.
